According to US20170191038A1, “TGFß SIGNALING INDEPENDENT NAÏVE INDUCED PLURIPOTENT STEM CELLS, METHODS OF MAKING AND USE” (HONG GUAN Ltd., priority 2014, published 2017):
Structures can show the parent of a compound that is named as a salt.

Assays:
Assay type in all cases: cell-based, rhesus monkey (Macaca mulatta)
[1] = system: Rhesus monkey naïve iPSCs; assay: Signaling analysis of rhesus monkey naïve iPSCs (TRA-1-81-positive dome-shaped colonies); settings: optimized conversion conditions; 5 days; Stattic 1 μM, SB431542 10 μM, SU5402 2 μM, TGF-β1 2 ng/ml
Description: (§1) Rhesus monkey primed iPSCs were maintained as described (Liu H et al., 2008). […] The tested signaling modulators were SU5402 (2 μM; Tocris), SB431542 (10 μM; Tocris), Stattic (1 μM; Tocris) and TGF-β1 (2 ng/ml, Peprotech). After treatment for 5 days, cells were fixed and immunostained for TRA-1-81.
(§2) To detect ALP activity the cells were washed with phosphate-buffered saline three times and stained with BCIP/NBT (Promega) for 15 min. For immunofluorescence, the primary antibodies included those against SSEA-1 (1:50, Chemicon), SSEA-4 (1:20, Santa Cruz Biotechnology), TRA-1-60 (1:50, Santa Cruz Biotechnology), TRA-1-81 (1:50, Santa Cruz Biotechnology), NANOG (1:100, R&D Systems), TBX3 (1:200, Abcam), H3K27me3 (1:200, Millipore), GATA4 (1:200, Santa Cruz Biotechnology), OCT4 (1:200, Abcam) and SOX2 (1:200, Santa Cruz Biotechnology). The secondary antibodies were rhodamine-labeled donkey anti-mouse IgG (1:100, Santa Cruz Biotechnology), rhodamine-labeled donkey anti-rabbit IgG (1:100, Santa Cruz Biotechnology), rhodamine-labeled goat anti-mouse IgM (1:100, Santa Cruz Biotechnology) and rhodamine-labeled donkey anti-goat IgG (1:100, Santa Cruz Biotechnology). DAPI (Roche Applied Science) was used for nuclear staining.

[2] = system: Rhesus monkey primed iPSCs; assay: Signaling analysis of rhesus monkey primed iPSCs (TRA-1-81-positive colonies); settings: hESCs medium; 5 days; Stattic 1 μM, SB431542 10 μM, SU5402 2 μM, TGF-β1 2 ng/ml
Description: as §1, §2

[3] = system: Rhesus monkey primed iPSCs; assay: Conversion of rhesus monkey primed iPSCs to naive iPSCs (conversion condition optimization, TRA-1-81/TBX3 double-positive dome-shaped colonies); settings: for effect on pluripotency / dome-shaped colony formation during naive conversion: primed iPSCs under 2i/LIF-based conditions, Y27632 10 μM, GÖ6983 5 μM
Description: Rhesus monkey primed iPSCs were dissociated into single cells by accutase and reseeded on feeder cells. The converting medium with 4 ng/ml bFGF (R&D Systems), 10 ng/ml human LIF (Millipore), CHIR99021 (3 μM; Stemgent) and PD0325901 (0.5 μM; Stemgent) was changed daily. At approximately day 7 to day 10, dome-shaped colonies were selected and transferred onto fresh feeder cells. Traditional 2i/LIF conditions—10 ng/ml human LIF (Millipore), CHIR99021 (3 μM; Stemgent) and PD0325901 (0.5 μM; Stemgent) were also tested and served as negative control. • (c) Conversion Condition Optimization for Rhesus Monkey Naïve iPSCs
Rhesus monkey primed iPSCs were dissociated into single cells by accutase and reseeded on feeder cells. The basal culture medium with 4 ng/ml bFGF (R&D Systems), 10 ng/ml human LIF (Millipore), CHIR99021 (3 μM; Stemgent) and PD0325901 (0.5 μM; Stemgent) was changed daily. The small molecules tested for culture condition optimization were SB203580 (10 μM; Tocris), SP600125 (10 μM; Tocris), Y27632 (10 μM; Tocris) and GÖ6983 (5 μM; Tocris). After treatment for 8 days, cells were fixed and immunostained for TRA-1-81.
as §2

Row | Compound | self-renewal / pluripotency maintenance of naive iPSCs (TRA-1-81-positive dome-shaped colonies, words) [1] | self-renewal / pluripotency maintenance of primed iPSCs (TRA-1-81-positive colonies, words) [2] | effect on pluripotency / dome-shaped colony formation during naive conversion [3] | conversion efficiency (TRA-1-81/TBX3 double-positive and dome-shaped colonies of total colonies) ([3]; bFGF (4 ng/ml) added to 2i/LIF conditions, primed iPSCs)
1 | TGF-β: transforming growth factor-β1 (2 ng/ml, Peprotech) | devastating to the self-renewal of naïve iPSCs | – | – | –
2 | O=[N+]([O-])c1ccc2c(c1)S(=O)(=O)C=C2 [JAK/STAT3 inhibitor] | readily differentiated with greatly reduced expression of TRA-1-81 | maintained their pluripotent properties | – | –
3 | NC(=O)c1ccc(-c2nc(-c3ccccn3)c(-c3ccc4c(c3)OCO4)[nH]2)cc1 [SB431542] | no effect on rhesus monkey naive iPSCs | devastating to primed iPSCs self-renewal | – | –
4 | COc1ccc2c(c1)c(C1=C(c3c[nH]c4ccccc34)C(=O)NC1=O)cn2CCCN(C)C [GO{umlaut over ( )} 6983, 3-[1-[3-(Dimethylamino)propyl]-5-methoxy-1H-indol-3-yl]-4-(1H-indol-3-yl)-1H-pyrrole-2,5-dione] | – | – | induced pronounced differentiation and reduced TRA-1-81 expression in the colonies | –
5 | bFGF: recombinant basic fibroblast growth factor, protein factor | – | – | Dome-shaped colonies morphologically similar to mouse ESCs appeared | 8%-10%
6 | O=C(NOC[C@H](O)CO)c1ccc(F)c(F)c1Nc1ccc(I)cc1F [PD0325901, N-[(2R)-2,3-Dihydroxypropoxy]-3,4-difluoro-2-[(2-fluoro-4-iodophenyl)amino]-benzamide] | – | – | essential for conversion and maintenance of TBX3/TRA-1-81 double-positive dome-shaped colonies | –
7 | C[C@@H](N)[C@H]1CC[C@H](C(=O)Nc2ccncc2)CC1 [Y27632, (+)-(R)-trans-4-(1-aminoethyl)-N-(4-pyridyl)cyclohexanecarboxamide+++dihydrochloride] | – | – | induced pronounced differentiation and reduced TRA-1-81 expression in the colonies | –
8 | Cc1c[nH]c(/C=C2\C(=O)Nc3ccccc32)c1CCC(=O)O [SU5402] | few TRA-1-81-positive colonies formed | few TRA-1-81-positive colonies formed | – | –
